Drawing on ChEMBL document CHEMBL2074026, “Novel experimental parameters to quantify the modulation of absorptive and secretory transport of compounds by P-glycoprotein in cell culture models of intestinal epithelium” (Pharm Res, 2003), this text covers Activity for 11 molecules.

Structures are written as SMILES.

What all share (assay type): functional, cell-based
Series [1] concerns the target T1, ATP-dependent translocase ABCB1 (Homo sapiens, UniProt P08183). Briefly: TP_TRANSPORTER: transepithelial transport of Saquinavir at a concentration of 20 uM in Caco-2 cells. Particulars: caco-2, 20 µM. A general note: Caco-2 monolayers are a common model of the intestinal barrier.
Series [2] has as its target T1, ATP-dependent translocase ABCB1. Briefly: TP_TRANSPORTER: transepithelial transport of Saquinavir at a concentration of 20 uM in MDR1-expressing MDCK cells. To be noted: dog.
For series [3] the target is unchanged. Description: TP_TRANSPORTER: transepithelial transport of Acebutolol at a concentration of 20 uM in Caco-2 cells. Particulars: caco-2, 20 µM.
For series [4] the target is unchanged. Briefly: TP_TRANSPORTER: transepithelial transport of Acebutolol at a concentration of 20 uM in MDR1-expressing MDCK cells. To be noted: dog.
Series [5] has the same target. Briefly: TP_TRANSPORTER: transepithelial transport of Colchicine at a concentration of 25 uM in Caco-2 cells. Particulars: caco-2, 25 µM.
Series [6] shares this target. Briefly: TP_TRANSPORTER: transepithelial transport of Colchicine at a concentration of 25 uM in MDR1-expressing MDCK cells. Particulars: dog.
Series [7] shares this target. Description: TP_TRANSPORTER: transepithelial transport of Digoxin at a concentration of 10 uM in Caco-2 cells.
Series [8] has the same target. Description: TP_TRANSPORTER: transepithelial transport of Digoxin at a concentration of 10 uM in MDR1-expressing MDCK cells. Particulars: dog.
Series [9] shares this target. Description: TP_TRANSPORTER: transepithelial transport of Doxorubicin at a concentration of 10 uM in Caco-2 cells.
For series [10] the target is unchanged. Briefly: TP_TRANSPORTER: transepithelial transport of Doxorubicin at a concentration of 10 uM in MDR1-expressing MDCK cells. To be noted: dog.
For series [11] the target is unchanged. Briefly: TP_TRANSPORTER: transepithelial transport of Methylprednisolone at a concentration of 20 uM in MDR1-expressing MDCK cells. To be noted: dog.
Series [12] shares this target. Briefly: TP_TRANSPORTER: transepithelial transport of Methylprednisolone at a concentration of 20 uM in Caco-2 cells. To be noted: caco-2, 20 µM.
Series [13] shares this target. Description: TP_TRANSPORTER: transepithelial transport of Taxol at a concentration of 10 uM in Caco-2 cells.
Series [14] has the same target. Description: TP_TRANSPORTER: transepithelial transport of Taxol at a concentration of 10 uM in MDR1-expressing MDCK cells. Particulars: dog.
Series [15] shares this target. Briefly: TP_TRANSPORTER: transepithelial transport of Prednisolone at a concentration of 20 uM in MDR1-expressing MDCK cells. Particulars: dog.
The target is the same in series [16]. Briefly: TP_TRANSPORTER: transepithelial transport of Ranitidine at a concentration of 100 uM in MDR1-expressing MDCK cells. Particulars: dog.
The target is the same in series [17]. Briefly: TP_TRANSPORTER: transepithelial transport of Ranitidine at a concentration of 100 uM in Caco-2 cells. To be noted: caco-2, 100 µM.
For series [18] the target is unchanged. Briefly: TP_TRANSPORTER: transepithelial transport of Rhodamine at a concentration of 10 uM in Caco-2 cells.
Series [19] has the same target. Description: TP_TRANSPORTER: transepithelial transport of Rhodamine at a concentration of 10 uM in MDR1-expressing MDCK cells. Particulars: dog.
The target is the same in series [20]. Description: TP_TRANSPORTER: transepithelial transport of Vinblastine at a concentration of 0.1 uM in MDR1-expressing MDCK cells. To be noted: dog.
For series [21] the target is unchanged. Briefly: TP_TRANSPORTER: transepithelial transport in the presence of Vinblastine at 0.1 uM in Caco-2 cells.

T1 sequence (P08183 whole entry): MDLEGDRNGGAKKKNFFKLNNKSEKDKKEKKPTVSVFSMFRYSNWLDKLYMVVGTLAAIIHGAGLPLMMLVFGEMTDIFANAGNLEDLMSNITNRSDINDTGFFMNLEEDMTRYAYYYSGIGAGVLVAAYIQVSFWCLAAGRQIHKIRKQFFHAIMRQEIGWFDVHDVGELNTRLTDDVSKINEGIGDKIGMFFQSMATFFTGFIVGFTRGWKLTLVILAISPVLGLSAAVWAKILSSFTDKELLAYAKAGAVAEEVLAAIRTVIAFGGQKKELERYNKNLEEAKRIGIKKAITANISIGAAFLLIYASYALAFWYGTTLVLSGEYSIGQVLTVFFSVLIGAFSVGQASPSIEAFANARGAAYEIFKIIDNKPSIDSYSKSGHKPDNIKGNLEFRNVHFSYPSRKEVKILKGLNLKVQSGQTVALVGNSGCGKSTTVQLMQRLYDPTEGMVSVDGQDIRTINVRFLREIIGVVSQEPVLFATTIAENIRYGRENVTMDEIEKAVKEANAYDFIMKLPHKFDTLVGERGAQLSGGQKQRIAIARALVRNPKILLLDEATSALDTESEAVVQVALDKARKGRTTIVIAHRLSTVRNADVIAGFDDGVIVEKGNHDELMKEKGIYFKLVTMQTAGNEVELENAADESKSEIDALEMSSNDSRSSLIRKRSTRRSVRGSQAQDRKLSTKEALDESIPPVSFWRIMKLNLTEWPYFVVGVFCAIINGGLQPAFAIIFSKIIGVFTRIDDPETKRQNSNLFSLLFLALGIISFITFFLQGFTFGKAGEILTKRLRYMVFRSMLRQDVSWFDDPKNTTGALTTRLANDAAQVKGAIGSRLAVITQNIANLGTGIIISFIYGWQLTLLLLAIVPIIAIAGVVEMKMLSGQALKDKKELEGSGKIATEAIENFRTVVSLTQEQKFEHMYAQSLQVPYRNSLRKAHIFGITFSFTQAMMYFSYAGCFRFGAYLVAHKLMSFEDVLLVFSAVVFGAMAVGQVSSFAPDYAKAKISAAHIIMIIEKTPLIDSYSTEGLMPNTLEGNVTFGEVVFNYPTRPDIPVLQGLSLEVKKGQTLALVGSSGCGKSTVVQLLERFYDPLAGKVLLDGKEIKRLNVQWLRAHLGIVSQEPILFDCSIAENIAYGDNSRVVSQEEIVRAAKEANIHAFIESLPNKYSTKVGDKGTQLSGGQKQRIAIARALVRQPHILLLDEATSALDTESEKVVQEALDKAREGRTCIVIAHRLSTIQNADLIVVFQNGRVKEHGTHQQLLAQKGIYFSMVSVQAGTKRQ

Take `CC(C)(C)NC(=O)[C@@H]1C[C@@H]2CCCC[C@@H]2CN1C[C@@H](O)[C@H](Cc1ccccc1)NC(=O)[C@H](CC(N)=O)NC(=O)c1ccc2ccccc2n1`: the Activity entry in [1] and in [2] was “substrate [+]” throughout.
Take `CCCC(=O)Nc1ccc(OCC(O)CNC(C)C)c(C(C)=O)c1` (stereo unspecified) [ACEBUTOLOL]: the Activity entry in series [3] and in series [4] was “substrate [+]” in each case.
On to `COc1cc2c(c(OC)c1OC)-c1ccc(OC)c(=O)cc1[C@@H](NC(C)=O)CC2` [COLCHICINE], for which the Activity entry in series [5] and in series [6] was “substrate [+]” throughout.
In the case of `C[C@H]1O[C@@H](O[C@H]2[C@@H](O)C[C@H](O[C@H]3[C@@H](O)C[C@H](O[C@H]4CC[C@@]5(C)[C@H](CC[C@@H]6[C@@H]5C[C@@H](O)[C@]5(C)[C@@H](C7=CC(=O)OC7)CC[C@]65O)C4)O[C@@H]3C)O[C@@H]2C)C[C@H](O)[C@@H]1O` [DIGOXIN], the Activity result in [7] and in series [8] was “substrate [+]” in each case.
In the case of `COc1cccc2c1C(=O)c1c(O)c3c(c(O)c1C2=O)C[C@@](O)(C(=O)CO)C[C@@H]3O[C@H]1C[C@H](N)[C@H](O)[C@H](C)O1` [DOXORUBICIN], the Activity entry in series [9] and in series [10] was “substrate [+]” each time.
Consider `C[C@H]1C[C@@H]2[C@H]([C@@H](O)C[C@@]3(C)[C@H]2CC[C@]3(O)C(=O)CO)[C@@]2(C)C=CC(=O)C=C12` [METHYLPREDNISOLONE], for which the Activity entry in series [11] and in series [12] was “substrate [+]” each time.
For `CC(=O)O[C@H]1C(=O)[C@@]2(C)[C@H]([C@H](OC(=O)c3ccccc3)[C@]3(O)C[C@H](OC(=O)[C@H](O)[C@@H](NC(=O)c4ccccc4)c4ccccc4)C(C)=C1C3(C)C)[C@]1(OC(C)=O)CO[C@@H]1C[C@@H]2O` [PACLITAXEL], the Activity result in series [13] and in [14] was “substrate [+]” each time.
Consider `C[C@]12C=CC(=O)C=C1CC[C@@H]1[C@@H]2[C@@H](O)C[C@@]2(C)[C@H]1CC[C@]2(O)C(=O)CO` [PREDNISOLONE], for which, in series [15], the Activity entry is “substrate [+]”.
On to `CNC(=C[N+](=O)[O-])NCCSCc1ccc(CN(C)C)o1` [RANITIDINE], for which the Activity entry in series [16] and in series [17] was “substrate [+]” each time.
Take `CCN(CC)c1ccc2c(-c3ccccc3C(=O)O)c3ccc(=[N+](CC)CC)cc-3oc2c1.[Cl-]` [RHODAMINE]: the Activity result in series [18] and in series [19] was “substrate [+]” in each case.
Consider `CC[C@]1(O)C[C@@H]2CN(CCc3c([nH]c4ccccc34)[C@@](C(=O)OC)(c3cc4c(cc3OC)N(C)[C@H]3[C@@](O)(C(=O)OC)[C@H](OC(C)=O)[C@]5(CC)C=CCN6CC[C@]43[C@@H]65)C2)C1` [VINBLASTINE], for which the Activity result in [20] and in [21] was “substrate [+]” in each case.
